System: 282377-053-R-J1-PDC complex spheroid viability
Test: Anticancer human tumor 282377-053-R-J1-PDC patient-derived colon adenocarcinoma cell line growth inhibition [POLQ]
Settings: for IC50: curve of first compound; for viability, T/C: stronger effect = lower value
Method in brief: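 Three-cell-type spheroids modelling solid tumor plus stroma served as the readout system; POL inhibitors were tested individually and in combination, concentration ranges set by clinical Cmax where known.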

[1] = second compound 0.0316 µM, first compound 0.0316 µM
[2] = second compound 0.0316 µM, first compound 0.1 µM
[3] = second compound 0.0316 µM, first compound 0.316 µM
[4] = second compound 0.0316 µM, first compound 1 µM
[5] = second compound 0.0316 µM, first compound 3.16 µM
[6] = second compound 0.0316 µM, first compound 10 µM
[7] = second compound 0.1 µM, first compound 0.0316 µM
[8] = second compound 0.1 µM, first compound 0.1 µM
[9] = second compound 0.1 µM, first compound 0.316 µM
[10] = second compound 0.1 µM, first compound 1 µM
[11] = second compound 0.1 µM, first compound 3.16 µM
[12] = second compound 0.1 µM, first compound 10 µM
[13] = second compound 0.316 µM, first compound 0.0316 µM
[14] = second compound 0.316 µM, first compound 0.1 µM
[15] = second compound 0.316 µM, first compound 0.316 µM
[16] = second compound 0.316 µM, first compound 1 µM
[17] = second compound 0.316 µM, first compound 3.16 µM
[18] = second compound 0.316 µM, first compound 10 µM
[19] = second compound 1 µM, first compound 0.0316 µM
[20] = second compound 1 µM, first compound 0.1 µM
[21] = second compound 1 µM, first compound 0.316 µM
[22] = second compound 1 µM, first compound 1 µM
[23] = second compound 1 µM, first compound 3.16 µM
[24] = second compound 1 µM, first compound 10 µM
[25] = second compound 3.16 µM, first compound 0.0316 µM
[26] = second compound 3.16 µM, first compound 0.1 µM
[27] = second compound 3.16 µM, first compound 0.316 µM
[28] = second compound 3.16 µM, first compound 1 µM
[29] = second compound 3.16 µM, first compound 3.16 µM
[30] = second compound 3.16 µM, first compound 10 µM
[31] = second compound 10 µM, first compound 0.0316 µM
[32] = second compound 10 µM, first compound 0.1 µM
[33] = second compound 10 µM, first compound 0.316 µM
[34] = second compound 10 µM, first compound 1 µM
[35] = second compound 10 µM, first compound 3.16 µM
[36] = second compound 10 µM, first compound 10 µM
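Note: spheroids exposed to compounds for seven days.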
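Throughout, for viability, T/C: 100% = DMSO vehicle control viability.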

SMILES: CC1COCCN1c1cc(C2(S(C)(=N)=O)CC2)nc(-c2ccnc3[nH]ccc23)n1 (centres undefined) + Cc1cccc(N(C)C(=O)C2C(O)CCN2c2nc(C)cc(C(F)(F)F)c2C#N)c1
- IC50 (second compound 0.0316 µM): 7.38 µM
- IC50 (second compound 0.1 µM): > 10 µM
- IC50 (second compound 0.316 µM): > 10 µM
- IC50 (second compound 1 µM): > 10 µM
- IC50 (second compound 3.16 µM): > 10 µM
- IC50 (second compound 10 µM): 5.13 µM
- viability, T/C [1]: 113%
- viability, T/C [2]: 81.7%
- viability, T/C [3]: 108%
- viability, T/C [4]: 77.6%
- viability, T/C [5]: 66%
- viability, T/C [6]: 44%
- viability, T/C [7]: 98.3%
- viability, T/C [8]: 103%
- viability, T/C [9]: 77.5%
- viability, T/C [10]: 84.4%
- viability, T/C [11]: 71.8%
- viability, T/C [12]: 54.3%
- viability, T/C [13]: 91.3%
- viability, T/C [14]: 101%
- viability, T/C [15]: 80.8%
- viability, T/C [16]: 89.5%
- viability, T/C [17]: 98.2%
- viability, T/C [18]: 50.2%
- viability, T/C [19]: 107%
- viability, T/C [20]: 111%
- viability, T/C [21]: 83.6%
- viability, T/C [22]: 86.1%
- viability, T/C [23]: 69.5%
- viability, T/C [24]: 52.5%
- viability, T/C [25]: 93%
- viability, T/C [26]: 84.4%
- viability, T/C [27]: 123%
- viability, T/C [28]: 114%
- viability, T/C [29]: 64.9%
- viability, T/C [30]: 49.7%
- viability, T/C [31]: 90.6%
- viability, T/C [32]: 73.6%
- viability, T/C [33]: 89.1%
- viability, T/C [34]: 80.2%
- viability, T/C [35]: 55.4%
- viability, T/C [36]: 42.7%

SMILES: COc1ccc([C@@H](O)c2cc(-c3ncnc4cc(N5CCOCC5)ccc34)c(F)cc2Cl)nn1 + Nc1ccc(C#CCN(C(=O)Cc2ncc(C(F)(F)F)cc2C(F)(F)F)c2ccc(F)cc2)nn1
- IC50 (second compound 0.0316 µM): > 10 µM
- IC50 (second compound 0.1 µM): > 10 µM
- IC50 (second compound 0.316 µM): > 10 µM
- IC50 (second compound 1 µM): > 10 µM
- IC50 (second compound 3.16 µM): > 10 µM
- IC50 (second compound 10 µM): > 10 µM
- viability, T/C [1]: 101%
- viability, T/C [2]: 98.1%
- viability, T/C [3]: 102%
- viability, T/C [4]: 93.8%
- viability, T/C [5]: 88.3%
- viability, T/C [6]: 71.8%
- viability, T/C [7]: 94.4%
- viability, T/C [8]: 108%
- viability, T/C [9]: 97.3%
- viability, T/C [10]: 100%
- viability, T/C [11]: 85.5%
- viability, T/C [12]: 83.2%
- viability, T/C [13]: 102%
- viability, T/C [14]: 86.2%
- viability, T/C [15]: 111%
- viability, T/C [16]: 89%
- viability, T/C [17]: 106%
- viability, T/C [18]: 86.9%
- viability, T/C [19]: 106%
- viability, T/C [20]: 88.5%
- viability, T/C [21]: 95.5%
- viability, T/C [22]: 91.9%
- viability, T/C [23]: 88.6%
- viability, T/C [24]: 84.1%
- viability, T/C [25]: 109%
- viability, T/C [26]: 105%
- viability, T/C [27]: 92.5%
- viability, T/C [28]: 100%
- viability, T/C [29]: 91%
- viability, T/C [30]: 85.4%
- viability, T/C [31]: 122%
- viability, T/C [32]: 111%
- viability, T/C [33]: 98.7%
- viability, T/C [34]: 109%
- viability, T/C [35]: 100%
- viability, T/C [36]: 90.1%

From PubChem BioAssay AID1963852 (Molecular Pharmacology Branch, DTP, NCI, 2024)
